The values below come from patent US4337199A, “Antibiotic β-lactam compounds, production thereof, and their use as antimicrobial agent” (Sanraku-Ocean Co., Ltd., priority 1978, dated 1982).

≈ marks a conversion by molar mass, not a printed value.

Experiment [1] concerns Staphylococcus aureus Smith strain. As to the kind of experiment: Infection treating test. Format: in vivo, Staphylococcus aureus (in ddy male mice). The note with it: sc, 2 h, mice infected intraperitoneally, 5×10^5 cells per mouse, subcutaneous, two hours after infection, read-out: CD50 (the source's name). The procedure:
The in vivo activities of the compounds of formula (I-d) were determined by using mice (five per group, ddy male mice, Shizuoka) which had been intraperitoneally infected with Staphylococcus aureus Smith strain in an amount of 5×10^5 cells per mouse. Two hours after the infection, an injection containing a sodium salt of each of the compounds of formula (I-d) was subcutaneously administered to the mice.

Experiment [2] has as its system Gram-positive and Gram-negative bacteria. Put plainly: antibiotic activity (antimicrobial spectrum). Format: cell-based. To be noted: comparison in words. The procedure: The minimum inhibitory concentrations of the compounds of formula (I-a-1) or (I-b-1) in Tables I-1 to I-7 and the known compounds in Table I-8 on the various microorganisms shown in the above tables were measured by an agar dilution assay method using a brain heart infusion agar medium "Difco" (a product of Difco Laboratories Inc.)
A sample of the test compound was dissolved in sterile distilled water and diluted to prepare a two-fold dilution series of the compound solution. In a petri plate of 9 cm diameter, 1 ml of the compound solution was added to 9 ml of molten sterile heart infusion agar medium (Difco Laboratories Inc.) at about 60° C. to prepare the compound-containing agar plate. An overnight culture of each test organism indicated in the above table which was prepared by stationary cultivation in Trypto-Soy broth (Eiken Chemi. Co., Ltd.) at 35° C. for 18 to 20 hours, was diluted with the Trypto-Soy broth to give approximately 10^8 cells/ml and the diluted inoculum was inoculated onto the compound-containing agar plates. After cultivating the plates at 35° C. for 20 hours, the growth of the organism was observed. The minimum concentration of the compound at which no growth of the microorganism was noted was determined, and defined as the minimum inhibitory concentration of the test compound.

In experiment [3] the test system is Citrobacter freundii GN 346. Put plainly: minimum inhibitory concentration, agar dilution assay. Format: cell-based. The note with it: GN346, agar dilution, 35° C., 20 hours, read-out: minimum inhibitory concentration. An outline of the steps:
(§1)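 Two-fold dilutions of compound in sterile water were mixed into molten brain heart infusion agar at about 60 °C. Plates were inoculated with Trypto-Soy broth cultures (35 °C, 18–20 h) diluted to approximately 10^8 cells/ml. After 20 h at 35 °C, MIC was taken as the lowest concentration showing no growth.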
(In agar dilution, organisms are placed on agar that contains the substance at set levels.)

The test system of another experiment is Enterobacter sp. E8. Described as above. It is filed as cell-based. The note with it: SP.E8, agar dilution, 35° C., 20 hours, read-out: minimum inhibitory concentration. An outline of the steps: as §1
The subject of a further experiment is Serratia marcescens S18. The description is as above. It is filed as cell-based. The note with it: S18, agar dilution, 35° C., 20 hours, read-out: minimum inhibitory concentration. An outline of the steps:
as §1

Experiment [4] relates to Staphylococcus aureus FDA 209P. The description is as above. Format: cell-based. The note with it: FDA209P, agar dilution, 35° C., 20 hours, read-out: minimum inhibitory concentration. The method in brief: as §1
The next experiment deals with Escherichia coli RGN 823. Described as above. Format: cell-based. The note with it: RGN823, agar dilution, 35° C., 20 hours, read-out: minimum inhibitory concentration. The method in brief: as §1
The test system of the next experiment is Proteus sp. P22. The description is as above. Format: cell-based. To be noted: agar dilution, 35° C., 20 hours; read-out: minimum inhibitory concentration. The method in brief: as §1
In another experiment the test system is Serratia marcescens T55. The experiment is described as above. It is filed as cell-based. To be noted: T55, agar dilution, 35° C., 20 hours, read-out: minimum inhibitory concentration. An outline of the steps: as §1
Another experiment deals with Enterobacter cloacae 45. Described as above. Format: cell-based. To be noted: Enterobacter cloacae, 45; agar dilution, 35° C., 20 hours; read-out: minimum inhibitory concentration. An outline of the steps: as §1
Experiment [5] deals with Bacillus subtilis ATCC 6633. The description is as above. Format: cell-based. The note with it: ATCC6633, agar dilution, 35° C., 20 hours, read-out: minimum inhibitory concentration. The method in brief:
as §1

The test system of experiment [6] is Pseudomonas aeruginosa IFO3445. The experiment is described as above. It is filed as cell-based. To be noted: IFO3445, agar dilution, 35° C., 20 hours, read-out: minimum inhibitory concentration. An outline of the steps:
as §1

In experiment [7] the test system is Klebsiella pneumoniae K-13. The experiment is described as above. It is filed as cell-based. The note with it: K13, agar dilution, 35° C., 20 hours, read-out: minimum inhibitory concentration. The method in brief: as §1
Experiment [8] has as its system Comamonas terrigena B-996. The experiment is described as above. The note with it: B996, agar dilution, 35° C., 20 hours, read-out: minimum inhibitory concentration. It is filed as cell-based. An outline of the steps:
as §1

Experiment [9] concerns Staphylococcus epidermidis. Described as above. It is filed as cell-based. To be noted: agar dilution, 35° C., 20 hours, read-out: minimum inhibitory concentration. The method in brief: as §1
Experiment [10] deals with Enterobacter aerogenes E19. The description is as above. It is filed as cell-based. To be noted: Klebsiella aerogenes, E19; agar dilution, 35° C., 20 hours; read-out: minimum inhibitory concentration. The method in brief: as §1
Experiment [11] concerns Pseudomonas aeruginosa NCTC10490. Described as above. Format: cell-based. To be noted: NCTC10490, agar dilution, 35° C., 20 hours, read-out: minimum inhibitory concentration. An outline of the steps: as §1
In a further experiment the test system is Proteus vulgaris GN76. Described as above. The note with it: GN76, agar dilution, 35° C., 20 hours, read-out: minimum inhibitory concentration. It is filed as cell-based. An outline of the steps: as §1
The test system of another experiment is Sarcina lutea. The description is as above. Format: cell-based. The note with it: Micrococcus luteus; agar dilution, 35° C., 20 hours; read-out: minimum inhibitory concentration. The method in brief: as §1
For the next experiment, the system named is Escherichia coli K-12. The experiment is described as above. Format: cell-based. To be noted: K12, agar dilution, 35° C., 20 hours, read-out: minimum inhibitory concentration. An outline of the steps:
as §1

A further experiment relates to Alcaligenes faecalis A 1. Described as above. It is filed as cell-based. The note with it: A1, agar dilution, 35° C., 20 hours, read-out: minimum inhibitory concentration. An outline of the steps:
as §1

Experiment [12] has as its system Staphylococcus aureus Smith. The description is as above. Format: cell-based. The note with it: agar dilution, 35° C., 20 hours, read-out: minimum inhibitory concentration. The method in brief:
as §1

Another experiment concerns Proteus rettgeri P7. The description is as above. To be noted: Providencia rettgeri, P7; agar dilution, 35° C., 20 hours; read-out: minimum inhibitory concentration. It is filed as cell-based. The method in brief:
as §1

The test system of experiment [13] is Staphylococcus aureus Russell. The experiment is described as above. It is filed as cell-based. The note with it: agar dilution, 35° C., 20 hours, read-out: minimum inhibitory concentration. An outline of the steps:
as §1

Another experiment relates to Proteus mirabilis P6. Described as above. Format: cell-based. The note with it: P6, agar dilution, 35° C., 20 hours, read-out: minimum inhibitory concentration. The method in brief: as §1
The next experiment concerns Providencia sp. P8. Described as above. It is filed as cell-based. The note with it: SP.P8, agar dilution, 35° C., 20 hours, read-out: minimum inhibitory concentration. An outline of the steps: as §1

Turning to `CC(=O)NCCSC1=C(C(=O)O)N2C(=O)C(C(C)O)C2C1` (stereo not drawn) [PS-3B . Na, reference compound], in experiment [1], the ED50 came to 2 mg/kg.

Consider `CC(=O)NCCSC1=C(C(=O)O)N2C(=O)C(C(C)O)C2C1` (stereo not drawn) [PS-3, 3-(2-acetamidoethylthio)-6-(1-hydroxyethyl)-7-oxo-1-azabicyclo[3.2.0]hept-2-ene-2-carboxylic acid], for which the “antibiotic activity (in words)” value in experiment [2] is “better antibiotic activity than cephazolin (CEZ)”.

As to `CC(O)C1C(=O)N2C(C(=O)O)=C(Sc3ccncc3)CC12` (stereo not drawn) [Example 60, 5,6-cis-3-(4-Pyridylthio)-6-(1-hydroxyethyl)-7-oxo-1-azabicyclo[3.2.0]hept-2-ene-2-carboxylic acid], the MIC in experiment [3] was 6.25 µg/mL (≈ 20.4 µM); with Enterobacter sp. E8 it was 0.025 µg/mL (≈ 0.0816 µM); in the experiment with Serratia marcescens S18, 50 µg/mL (≈ 163 µM); in [4] it was less than 0.007 µg/mL; in the experiment on Escherichia coli RGN 823 it was 6.25 µg/mL (≈ 20.4 µM); in the experiment on Proteus sp. P22, 50 µg/mL (≈ 163 µM). Also, the MIC is 25 µg/mL (≈ 81.6 µM) in the experiment on Serratia marcescens T55; 6.25 µg/mL (≈ 20.4 µM) in the experiment on Enterobacter cloacae 45; less than 0.007 µg/mL in [5]; 1.56 µg/mL (≈ 5.09 µM) in [6]; 25 µg/mL (≈ 81.6 µM) in [7]; less than 0.007 µg/mL in [8]. Further, the MIC in experiment [9] was less than 0.007 µg/mL; in experiment [10] it was 1.56 µg/mL (≈ 5.09 µM); in [11] it was 1.56 µg/mL (≈ 5.09 µM); in the experiment with Proteus vulgaris GN76 it was 50 µg/mL (≈ 163 µM); in the experiment with Sarcina lutea it was less than 0.007 µg/mL; in the experiment on Escherichia coli K-12, 0.05 µg/mL (≈ 0.163 µM). Moreover, the MIC in the experiment with Alcaligenes faecalis A 1 was less than 0.007 µg/mL; in experiment [12], less than 0.007 µg/mL; with Proteus rettgeri P7, 0.78 µg/mL (≈ 2.55 µM); in [13] it was less than 0.007 µg/mL; with Proteus mirabilis P6, 0.39 µg/mL (≈ 1.27 µM); in the experiment on Providencia sp. P8, 0.2 µg/mL (≈ 0.653 µM). Moreover, the ED50 in experiment [1] amounted to 0.125 mg/kg.
